Starred links: 1 amine or outer side, 2 acyl side, 3 side chain; linkers in the order of their positions; H or OH if unused. Non-standard residues stand in square brackets, D forms with d. Residues, ends and D or L forms follow the SMILES beside them. *: point of attachment. AzaVal = azavaline, CC(C)N(N[*:1])C(=O)[*:2]; X1 = NC(=O)CN1CC[C@@]2(CCCN2*)C1=O; azaLeu = CC(C)CN(N[*:1])C(=O)[*:2]

One assay has as its target T1, MyD88 homodimer (Homo sapiens, UniProt Q99836).
T1 construct: incubated with purified protein GST-MyD88TIR; made in house; host or cells: HEK293 (myc-MyD88, transient expression)
The assay is described as follows: co-immunoprecipitation assay of MyD88 homodimerisation (myc-MyD88 / GST-MyD88TIR, Western blot). Format: binding. As to conditions: residual interaction in the MyD88 homodimer as percentage of the untreated protein; peptide 200 μM, 60 min at 4° C. The text has this: (§1) Preliminary studies on the inhibition of the homodimerisation of MyD88 have been conducted by the present inventors using a co-immunoprecipiation assay on a series of natural peptides (synthesised as acetylamide at the N terminal and as primary amide at the carboxyl terminal) comprising the consensus sequence of the BB loop. […] The protein myc-MyD88 is expressed temporarily in HEK293 cells and isolated from cell extracts by immunoprecipitation with the anti-myc antibody. The immunoprecipitated protein is incubated with purified protein GST-MyD88TIR for 60 min at 4° C. in the presence or absence of the synthetic peptide (final concentration 200 μM). After suitable washings, the proteins absorbed to the resin used for the immunoprecipitation are solubilised with SDS and analysed by Western blot for the presence of myc-MyD88 and GST-MyD88TIR. Percentage inhibition of NF-kB activation is also given for these two peptides

Assay [1] relates to NF-kB. The assay is described as follows: NF-kB activation inhibition, preliminary studies on natural peptides (Table 1). Format: cell-based. The conditions noted are these: conditions not stated.
Excerpt: as §1

Assay [2] relates to NF-kB. The assay is described as follows: NF-kB inhibition assay in HeLa cells stimulated with IL1α (Trans AM ELISA). Format: cell-based, Human. As to conditions: for % NF-κB INHIBITION: HeLa cells, compound 100 μM for 6 hours, then 5 ng/ml IL1α for 30 minutes; for inhibition at 100 µM: Homo sapiens, HeLa, read-out: % NF-κB INHIBITION
How it is done:
The activation of NF-kB is an event that takes place downstream of the homodimerisation of MyD88 and its binding to the intracytoplasmic portions of number of receptor complexes. The ability of the compounds which are the subject of the present invention to inhibit the activation of NF-kB downstream of the amplification cascade of the signal triggered by IL1α was therefore evaluated.
All the molecules were assayed beforehand with the MTT cell viability test, verifying that the dose of compound used in the NF-kB inhibition assay was lower than the toxic dose.
HeLa* cells were cultured in EMEM (EBSS) medium supplemented with 2 mM glutamine+1% non-essential amino acids+7.5% FBS (Foetal Bovine Serum)+10 ml/l of a solution of penicillin-streptomycin (10,000 units/ml penicillin and 10 mg/ml streptomycin).
(All cell media and the various components were purchased from Sigma-Aldrich. *HeLa cell line Human Negroid cervix epithelioid carcinoma Human from SIGMA ALDRICH ECACC Ref No: 93021013. IL1α*=SIGMA I2778 Interleukin-1-alpha IL1a Human, recombinant expressed in E. coli).
The cells were used after a number of cell passages ranging from 14 to 35.
Cells are seeded in 6-well plates at a density of 300,000 cells/well in complete medium and incubated overnight at 37° C., 5% CO2.
After approximately 18 hours, the complete medium is eliminated, cells are washed twice with PBS 1× and 1 ml of FBS-free medium is added to each well.
The molecules to be tested are subsequently added to the medium at a concentration of 100 μM. Cells are then incubated for 6 hours at 37° C., 5% CO2.
All the molecules assayed were dissolved in DMSO.
An equivalent volume of DMSO is added to the negative controls, i.e. cells not treated with the molecules.
At the end of the treatment with the molecules, the cells are stimulated with 5 ng/ml of IL1α* for 30 minutes and incubated at 37° C., 5% CO2.
An equivalent volume of PBS/BSA 0.4% (solution used to dissolve IL1α) is added to the negative controls, i.e. non-stimulated cells.
After stimulation with IL1α the cells are washed twice with PBS 1× and collected by cell scraping.
The cells are then centrifuged at 800 rpm, 4° C., 10 min. The supernatants are eliminated. The pellets are re-suspended in lysis buffer**, incubated for 10 minutes at 4° C. and centrifuged at maximum speed at 4° C. The pellets are eliminated and the supernatants frozen at −80° C.
The total protein content is subsequently measured by Bradford Assay using, as the standard, BSA at known concentration, and as used in the ELISA assay as described here below.
Activation/inhibition of NF-kB is evaluated using the Trans AM# (Active Motif) kit.
Il Trans AM kit permits detection of the activation of NF-kB induced by IL1α, through a calorimetric reaction that is obtained at the end of a routine ELISA assay.
The kit provides 96-well plates derivatised with an oligonucleotide that contains the consensus site of NF-kB (5′-GGGACTTT-CC-3′). This oligonucleotide specifically binds only the active form of NF-kB which is released after stimulation with IL1α. The first antibody supplied for detecting NF-kB recognises the p65 epitope which is accessible only when the transcriptional factor is active and binds its target DBNA sequence.
The secondary antibody supplied is conjugated to horse radish peroxidase which, with the addition of a chromogenic substrate, makes it possible to obtain a calorimetric reaction that can be evaluated spectrophotometrically at the wavelength of 450 nm.
The samples are assayed in duplicate and 10 μg of each extract are loaded into each well.
At the end of the assay, the % inhibition is calculated by processing the values obtained in the spectrophotometric readings as follows:
IL*-C*/IL-C=% activation of NF-kB.
IL*=A450 of cells stimulated and treated with the study molecules.
C*=A450 of cells not stimulated and treated with the study molecules.
IL=A450 of cells stimulated with IL1α and not treated with the molecules.
C=A450 of cells not stimulated and not treated. […]

Assay [3] relates to IL-1-responsive human IL-8 promoter gene region. The assay is described as follows: reporter gene assay (RGA) of luciferase activity in CaCo2 cells stimulated with IL-1. The assay is classed as cell-based. The conditions noted are these: substance 100 μM, IL-1 500 pg/mL. The source says: It is based on transient co-transfection of CaCo2 human intestinal epithelial cells with a reporter gene plasmid whose luciferase reporter gene expression is under control of the IL-1-responsive human IL-8 promoter gene region. The second plasmid in co-transfection is a vector coding for a control Renilla luciferase reporter gene, whose constitutive expression is used to estimate unspecific cellular toxicity of tested compounds. The read-out of the assay has been defined as the Relative Response Ratio (RRR) for the firefly and the Renilla luciferase, as follows: [formula] where the experimental sample is the value in cont per second (cps) of the experimental reporter luminescence, as defined for any unknown sample. The positive control is the value in cps of the reporter luminescence, as defined for the sample which identifies the maximal induction by IL-1 in the absence of reference inhibitor compound. The negative control is the value in cps of the reporter luminescence, as defined for the sample which identifies the absence of induction by IL-1. For the non-inducible Renilla luciferase, the RRR has been defined as follows: [formula]
The RGA is the read-out of the above experiments, and it was run as follows:
Plate 6×10^6 adherent CaCo2 cells on 10 cm plates. After 18-24 hours culture medium is changed, using 9 mL of D-MEM+glutamine 580 mg/L, without FBS and antibiotics. For each plate, 26 μg of IL-1-responsive reporter vector DNA (pGL2-NA-INT) and 4 μg of control reporter vector DNA are then dissolved in 500 μL Optimem (Invitrogen). Lipofectamine 2000 Reagent (Invitrogen) 30 μL are then added to 500 μL Optimem; this latter reaction mix is incubated for 5 min at room temperature. The DNA mix is then added drop by drop to the Lipofectamine 2000 mix. The resulting DNA/Lipofectamine mix is incubated for 20 min at room temperature and it is added drop by drop over the culture plate, by gently rocking the plate itself. Culture plates are then incubated for about 6 hours at 37° C. and 5% CO2. Cells are then trypsinized and transferred in 96-well plates, at 5×10^4 cells/well in 100 μL of culture medium (D-MEM with FBS 1%,+glutamine 580 mg/L), as required by the experimental design. Afterwards, cells were incubated for 16-18 hours at 37° C. and 5% CO2 and treated as follows: • Take out culture medium from each well. • Add 60 μL of fresh culture medium to control cell wells. • Add 40 μL of fresh culture medium to IL-1-treated wells. • Add 40 μL of fresh culture medium and 20 μL of substance at a concentration of 100 μM and 0.4% DMSO to inhibitor substance wells. • Add 20 μL fresh culture medium supplemented with 0.4% DMSO in IL-1-treated wells and in control cell wells. • Incubate at 37° C. and 5% CO2 for 4 hours. • After 2 hours, stimulate with 20 μL of IL-1 (500 pg/mL) for two additional hours at 37° C. and 5% CO2. • Appropriate amount of luciferase standard protein is included in additional assay wells. • Add for each well 80 μL of firefly luciferase substrate (Dual-Glo Luciferase Assay System reagent). • Incubate at room temperature for 10 min. • Read the firefly luciferase output on the Veritas lumenometer (Turner BioSystems). • Immediately add to each well 80 μL of the Renilla luciferase substrate (Dual-Glo Luciferase Assay System reagent). • Incubate at room temperature for 10 min. • Read the Renilla luciferase output on the Veritas lumenometer (Turner BioSystems).
Compounds considered positive in the RGA assay were those that gave a percentage inhibition ≧20%.

T1 sequence (Q99836 whole entry): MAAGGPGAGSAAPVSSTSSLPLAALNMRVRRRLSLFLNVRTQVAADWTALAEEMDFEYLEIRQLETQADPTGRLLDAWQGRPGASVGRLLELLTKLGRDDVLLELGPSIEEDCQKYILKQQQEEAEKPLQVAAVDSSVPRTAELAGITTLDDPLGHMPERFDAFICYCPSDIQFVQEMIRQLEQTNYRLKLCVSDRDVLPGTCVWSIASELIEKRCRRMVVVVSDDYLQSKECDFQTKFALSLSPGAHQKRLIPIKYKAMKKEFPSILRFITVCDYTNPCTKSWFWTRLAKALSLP

Regarding Ac-RDVVPGG-NH2 [ST2350], in the assay with MyD88 homodimer, the “% residual interaction” value worked out at 18%. For the same compound, the “% NF-kB inhibition” value with NF-kB [1] is reported as 20%.

With `CC(=O)N[C@H](CCCNC(=N)N)C(=O)N[C@H](CC(=O)O)C(=O)N[C@@H](C(=O)N[C@H](CC(C)C)C(=O)N1CCC[C@@]12CCN(CC(N)=O)C2=O)C(C)C` [ST2799, Ac-arg-asp-val-leu-Beta1-NH2] (Ac-[dR][dD][dV][dL]-X1), the “% NF-κB INHIBITION” value with NF-kB [2] is 23%.

Consider “H-Arg-Gly-AzaVal-Val-Pro-Gly-NH2 (H-RG[AzaVal]VPG-NH2; SMILES CC(C)[C@H](NC(=O)N(NC(=O)CNC(=O)[C@@H](N)CCCNC(=N)N)C(C)C)C(=O)N1CCC[C@H]1C(=O)NCC(N)=O) [ST2926]”, for which, in assay [3], the “% INHIBITION” value worked out at 20%.

On to “Ac-Azagly-Azagly-pro-leu-val-asp-arg-NH2 [ST3032]”, for which the “% INHIBITION” value in assay [3] was 21%.

As for `CC(=O)NCC(=O)N1CCC[C@H]1C(=O)Nc1cccc(C(=O)N[C@@H](CCCNC(=N)N)C(N)=O)c1C` [ST2864, Ac-Gly-Pro-SP30-Arg-NH2], in the assay on NF-kB [2], the inhibition at 100 µM was 16%.

For the compound `COc1ccc(C(=O)N2CCC[C@]23CCN(CC(=O)N[C@H](C(N)=O)[C@@H](C)O)C3=O)cc1NC(=O)c1cccnc1` [ST2792, PAM9-SP02-Beta2-Thr-NH2], the inhibition at 100 µM in the assay on NF-kB [2] amounted to 22%.

“Ap-PTDLVRG-NH2 [ST2403, reference compound]”: the “inhibition of NF-κB activation” value with NF-kB [2] (HeLa cells stimulated with IL-1α) was “inactive”.

On to Ac-RDVLPGT-NH2 [ST2348], for which the “% residual interaction” value with MyD88 homodimer is listed as 29%. For the same compound, the “% NF-kB inhibition” value in the assay on NF-kB [1] is listed as 37%.

Consider “Ac-thr-gly-pro-leu-val-asp-arg-NH2 [ST2565]”, for which the “% NF-κB INHIBITION” value in the assay with NF-kB [2] is reported as 30%.

“Ac-thr-Azagly-pro-leu-val-asp-arg-NH2 [ST2930]”: the “% INHIBITION” value in assay [3] is recorded as 24%.

For the compound “Ac-Arg-Asp-Azagly-Val-Pro-Gly-NH2 [ST2927]”, in assay [3], the “% INHIBITION” value stood at 22%.

Regarding “Ac-Arg-Asp-Val-AzaVal-Pro-Gly-NH2 [ST2920]”, the “% INHIBITION” value in assay [3] was found to be 25%.

Take “Ac-Arg-Asp-AzaLeu-Val-Pro-Gly-NH2 (Ac-RD[azaLeu]VPG-NH2; SMILES CC(=O)N[C@@H](CCCNC(=N)N)C(=O)N[C@@H](CC(=O)O)C(=O)NN(CC(C)C)C(=O)N[C@H](C(=O)N1CCC[C@H]1C(=O)NCC(N)=O)C(C)C) [ST2928]”: the “% INHIBITION” value in assay [3] was found to be 29%.

As for `CC(C)[C@H](NC(=O)[C@H](CC(=O)O)NC(=O)c1cccnc1)C(=O)N[C@H](C(=O)N1CCC[C@]12CCN(CC(N)=O)C2=O)C(C)C` [ST2794, PAM9-Asp-Val-Val-Beta2-NH2], the “% NF-κB INHIBITION” value with NF-kB [2] is given as 25%.

The values above are taken from US20080064643A1, “Myd88 Homodimerization Inhibitors” (priority 2004, published 2008).
